Laboratory results from EP2999467B1, “USE OF A COMBINATION OF TWO COMPOUNDS FOR THE TREATMENT AND/OR PREVENTION OF BONE DISORDERS” (Institut National de la Recherche Agronomique (INRA), priority 2013, dated 2014).

What was measured:
[1] = system: préostéoblastes primaires; experiment: ALP activity measurement in differentiating osteoblasts; format: cell-based, rats Wistar; details: Rattus norvegicus, Osteoblast, read-out: activité ALP par rapport à la condition « AA+βGP seuls »
Excerpt: Les préostéoblastes primaires ont été isolés à partir de la calotte crânienne de rats Wistar nouveaux-nés par digestion enzymatique comme précédemment décrit [Declercq, H., Van den Vreken, N., De Maeyer, E., Verbeeck, R., Schacht, E., De Ridder, L., and Cornelissen, M. (2004). Isolation, proliferation and differentiation of osteoblastic cells to study cell/biomaterial interactions: comparison of different isolation techniques and source. Biomaterials 25, 757-68.]. Les précurseurs d'ostéoclastes RAW264.7 ont été obtenus auprès de l'ATCC (Manassas, VA, USA). Les préostéoblastes et les RAW264.7 ont été cultivés dans du milieu α-MEM (Invitrogen, Carlsbad, CA, USA) supplémenté avec 10% de SVF décomplémenté et de 100 unités/ml de pénicilline-streptomycine.
Les préostéoblastes primaires ont été ensemencés à 3500 cellules par puits dans des plaques 96 puits traitées au collagène. Trente-six heures plus tard, les cellules ont été prétraitées avec du DMSO comme témoin ou de la fisétine (1 à 5 µM) pendant 12 heures, puis induites à se différentier avec 25 µg/ml d'acide ascorbique et 5 mM de bêta-glycérophosphate en présence de DMSO ou de fisétine (1 à 5 µM). L'activité enzymatique ALP a été mesurée en cinétique après 0, 5, 7 et 12 jours de traitement avec un changement de milieux tous les 2 jours. Les cellules ont été lysées par des cycles de gel-dégel et les lysats ont subi une homogénéisation dans 200 µl de tampon chlorure de magnésium hexahydrate, di-éthanoamine à un pH de 9,8. Les lysats cellulaires (10 µl) ont été ajoutés à 200 µl de solution de p-nitrophényl phosphate (16,2 mM) et l'absorbance a été mesurée en utilisant un lecteur de microplaques à 405 nm toutes les 90 seconds pendant 30min. Pour chaque échantillon, la concentration de protéines a été analysée pour exprimer les résultats sous forme de µmol de p-nitrophenol/heure/mg de protéines.

[2] = system: perte osseuse induite par ovariectomie; experiment: Ovariectomy-induced bone loss: trabecular bone mineral density of femur (CT); format: in vivo, souris C57BL/6J; details: OVX mice, Fisétine 25mg/kg daily by gavage; OVX without fisetin -15%
Procedure: (§1) Tout au long de l'étude, les animaux ont été logés dans un environnement contrôlé (12:12 h cycle lumière-obscurité, 20-22 ° C, 50-60% d'humidité relative, 1 souris par cage en plastique avec un accès libre à l'eau. Les souris C57BL/6J ont été livrées 2 semaines avant l'étude pour l'acclimatation à notre environnement sous régime standard semi-purifié. Pour toutes les expériences, les souris de 8 semaines (n=12/groupe) ont été gavées avec le véhicule (1% d'éthanol, 0,2% hydroxypropylcellulose dans de l'eau distillée) ou avec la fisétine (5 à 50 mg/kg dans le véhicule) pendant une semaine. Ensuite, pour l'expérience OVX, les souris ont été pseudo-opérées ou ovariectomisées bilatéralement et ont reçu quotidiennement par gavage le véhicule ou la fisétine pendant 4 semaines. A la fin de l'expérimentation, le sérum, les cornes utérines, les tibias et les fémurs ont été recueillis pour analyse. Pour l'expérience de perte osseuse induite par LPS, le véhicule (PBS) ou le LPS (sérotype 026: B6, 25mg/kg) ont été injectés par voie sous-cutanée au niveau de la calotte crânienne, une fois par semaine pendant 3 semaines sous anesthésie. Durant ces 3 semaines, les souris ont reçu soit le véhicule (1% d'éthanol, 0,2% hydroxypropylcellulose dans de l'eau distillée) soit la fisétine quotidiennement par gavage. […]

[3] = system: ostéocalcine sérique; experiment: Ovariectomy-induced bone loss: serum osteocalcin (ELISA); format: in vivo, souris C57BL/6J; details: daily Fisétine 25mg/kg by gavage
Procedure: as §1

In the case of `O=c1c(O)c(-c2ccc(O)c(O)c2)oc2cc(O)ccc12` [Fisétine, 3,3',4',7-tétrahydroxyflavone], the activation at 1 µM ([1]; AA+βGP+Fisétine 1 µM) is reported as 32%, the activation at 5 µM ([1]; AA+βGP+Fisétine 5µM) is reported as 87% and the activation at 2.5 µM ([1]; AA+βGP+Fisétine 2,5µM) is reported as 63%. The “densité minérale osseuse (DMO trabéculaire) par rapport à la condition témoin « SH »” value [2] was -4% and the “taux sérique d'ostéocalcine par rapport à la condition témoin « SH »” value [3] was “+61%”.
